Assay results taken from PMC11864979, “First-in-class ultralong-target-residence-time p38α inhibitors as a mitosis-targeted therapy for colorectal cancer” (Nature Cancer, 2025).
Values joined by “and” are separate entries in the source; they are usually repeats but may differ in a detail not shown here. Equal entries are not always repeated. Where two headings read alike, the source gives them in different places.

Key:
KMP organoids = assay: cell viability in KMP organoids; assay type: cell-based, mouse
Method: A total of 1,000–2,000 single cells were plated per well in white 96-well plates (Greiner) in culture medium containing 10% GFR Matrigel or Cultrex BME. The treatment with doxycycline (5 µg ml^−1), pharmacological inhibitors or corresponding volumes of DMSO was started 24 h after plating. Doxycycline was obtained from Sigma-Aldrich. […] Results were normalized to vehicle (DMSO) or to shNC. For cell-doubling assays, the cell number was quantified at the corresponding time points using Guava EasyCyte flow cytometer (Luminex, CytoSoft v5.2 software).

PDO2 = assay: cell viability in patient-derived CRC organoids PDO2; assay type: cell-based, human; settings: Fig. 3c, replicates
Method: (§1) For in vitro treatment studies, organoids were mechanically dissociated and digested using TrypLE supplemented with 100 µg ml^−1 DNaseI and 10.5 µM Y-27632 dihydrochloride (Invitrogen) at 37 °C. A total of 1,000–2,000 single cells were plated per well in white 96-well plates (Greiner) in culture medium containing 10% GFR Matrigel or Cultrex BME. The treatment with doxycycline (5 µg ml^−1), pharmacological inhibitors or corresponding volumes of DMSO was started 24 h after plating. Doxycycline was obtained from Sigma-Aldrich. […] Cell viability was measured by means of CellTiter-Glo 3D or CellTiter-Glo 2.0 reagent (Promega) according to the manufacturers’ instructions and the Infinite M Plex reader (Tecan, i-control version 3.9.1 software). Results were normalized to vehicle (DMSO) or to shNC. For cell-doubling assays, the cell number was quantified at the corresponding time points using Guava EasyCyte flow cytometer (Luminex, CytoSoft v5.2 software).

PDO4 = assay: cell viability in patient-derived CRC organoids PDO4; assay type: cell-based, human; settings: Fig. 3e, replicates
Method: as §1

PDO7 = assay: cell viability in patient-derived CRC organoids PDO7; assay type: cell-based, human; settings: PDO7, 1 µM, 4 days
Method: as §1

PDO9 = assay: cell viability in patient-derived CRC organoids PDO9; assay type: cell-based, human
Method: as §1

PDO12 = assay: cell viability in patient-derived CRC organoids PDO12; assay type: cell-based, human; settings: PDO12, 0.5 µM, 4 d
Method: as §1

HCT-15 = assay: cell viability in human CRC cell line HCT-15; assay type: cell-based
Method: (§2) To generate KAP^2D cells, KAP organoids were isolated from Matrigel, fragmented by mechanical dissociation and plated without any extracellular matrix on common cell culture dishes. Phoenix-Eco packaging cells (CRL-3214), HCT-15 (CCL-225), HCT 116 (CCL-247), COLO 205 (CCL-222), LS 174T (CL-188), RKO (CRL-2577) and HT-29 (HTB-38) were obtained from the American Type Culture Collection. The cells were cultured at 37 °C and 7% CO2 with RPMI (KAP^2D cells) or DMEM (other cell lines), supplemented with 10% FBS and penicillin–streptomycin. KAP^2D cells were authenticated using PCR (Kras locus and Trp53 locus). Phoenix-Eco packaging cells and HCT-15, HCT 116, COLO 205, LS 174T, RKO and HT-29 cells were authenticated by the provider using short tandem repeat profiling. No commonly misidentified cell lines were used. Mycoplasma contamination was excluded by a PCR-based analysis.
as §1

RKO = assay: cell viability in human CRC cell line RKO; assay type: cell-based
Method: as §2, §1

[1] = in vivo pharmacokinetic studies in mice (plasma, LC-MS); design: species or system mouse
Method: No mice were excluded during treatment studies. […] GFP imaging of tumors was performed using a Hamamatsu imaging system. For quantification of compounds in the murine plasma, 20 μl of tail-vein blood was diluted with 80 μl of heparin solution, before 200 μl of ice-cold acetonitrile with a defined internal standard was added. The samples were sonicated and centrifuged and the supernatant was subjected to liquid chromatography-mass spectrometry quantification. Full blood analyses were performed with the Sysmex KX-21N hematology analyzer.

[2] = Homo sapiens, 96 h, read-out: Cell viability (%)
[3] = mouse, plasma, oral administration in mice, 20 mg kg^−1
[4] = oral administration in mice, 20 mg kg^−1

## CNC(=O)c1ccc2c(c1)C(=O)c1ccc(Nc3ccc(F)c(NC(=O)C4CC4)c3)cc1CC2 [Compound 2015]
KMP organoids; 4 days
  therapeutic effect in KMP organoids (in words): increased responsiveness
KMP organoids; Fig. 2i, 0,5 µM, replicates, 5 µM
  Cell viability (%): 17.63% and 7.81% and 29.91%
KMP organoids; Fig. 2i, 0,25 µM, replicates
  Cell viability (%): 27.91% and 21.06%
KMP organoids; Fig. 2i, 1 µM, replicates
  Cell viability (%): 17.15% and 26.00%
KMP organoids; Mus musculus, Fig. 2i, 1 µM, replicates
  viability at 1 µM: 27.8%
PDO2; 0,5 µM, 5 µM
  Cell viability (%): 17.11% and 9.01% and 7.93%
PDO2; 0,25 µM
  Cell viability (%): 30.33% and 26.25%
PDO2; 1 µM
  Cell viability (%): 8.07% and 8.23%
PDO2; Homo sapiens, 1 µM
  viability at 1 µM: 10.5%
PDO4; 0,5 µM, 5 µM
  Cell viability (%): 13.84% and 14.01%
PDO4; 0,25 µM, 25 µM
  Cell viability (%): 62.38% and 62.93%
PDO4; 1 µM
  Cell viability (%): 11.63% and 11.83%
PDO4; Homo sapiens, 0,25 µM
  viability at 25 µM: 60%
PDO4; Homo sapiens, 1 µM
  viability at 1 µM: 11.2%
PDO7; [2]
  viability at 1 µM: 5.06%
PDO7; 1 µM
  Cell viability (%): 7.93% and 9.20%
PDO9; Homo sapiens, 96 h, PDO9, 0.5 µM, 4 d, read-out: Cell viability (%)
  viability at 0.5 µM: 20.8%
PDO9; Homo sapiens, 96 h, PDO9, 1 µM, 4 days
  viability at 1 µM: 9.78%
PDO9; PDO9, 0.5 µM, 4 d, 0.5 µM
  Cell viability (%): 30.12% and 37.18%
PDO9; PDO9, 1 µM, 4 days, 1 µM
  Cell viability (%): 8.84% and 14.14%
PDO12; [2]
  viability at 0.5 µM: 40%
PDO12; 0.5 µM
  Cell viability (%): 54.51% and 54.94%
HCT-15; 0.0137 µM, 4 d
  HCT-15 Cell viability (%): 103.10% and 103.13% and 91.18% and 87.03% and 85.56%
HCT-15; 0.0412 µM, 4 d
  HCT-15 Cell viability (%): 84.86% and 83.29% and 102.50% and 98.30% and 96.97%
HCT-15; 0.1235 µM, 4 d
  HCT-15 Cell viability (%): 82.55% and 82.85% and 86.50% and 79.01% and 79.10%
HCT-15; 0.3704 µM, 4 d
  HCT-15 Cell viability (%): 32.71% and 35.41% and 27.58% and 24.60% and 25.76%
HCT-15; 1.1111 µM, 4 d
  HCT-15 Cell viability (%): 27.21% and 26.38% and 23.73% and 21.02% and 21.11%
HCT-15; 3.3333 µM, 4 d
  HCT-15 Cell viability (%): 22.84% and 23.64% and 17.67% and 16.95% and 16.80%
HCT-15; 10.0000 µM, 4 d
  HCT-15 Cell viability (%): 23.68% and 23.79% and 17.32% and 16.59% and 17.19%
HCT-15; Homo sapiens, 96 h, HCT-15, 4 d of treatment
  IC50: 182 nM
HCT-15; Homo sapiens, HCT-15, 96 h, 0.0137 µM, 4 d, read-out: HCT-15 Cell viability (%)
  viability at 0.0137 µM: 103%
HCT-15; Homo sapiens, HCT-15, 96 h, 0.0412 µM, 4 d, read-out: HCT-15 Cell viability (%)
  viability at 0.0412 µM: 89.2%
HCT-15; Homo sapiens, HCT-15, 96 h, 0.1235 µM, 4 d, read-out: HCT-15 Cell viability (%)
  viability at 0.1235 µM: 85.9%
HCT-15; Homo sapiens, HCT-15, 96 h, 0.3704 µM, 4 d, read-out: HCT-15 Cell viability (%)
  viability at 0.3704 µM: 23.5%
HCT-15; Homo sapiens, HCT-15, 96 h, 1.1111 µM, 4 d, read-out: HCT-15 Cell viability (%)
  viability at 1.1111 µM: 31.6%
HCT-15; Homo sapiens, HCT-15, 96 h, 3.3333 µM, 4 d, read-out: HCT-15 Cell viability (%)
  viability at 3.3333 µM: 23.9%
HCT-15; Homo sapiens, HCT-15, 96 h, 10.0000 µM, 4 d, read-out: HCT-15 Cell viability (%)
  viability at 10 µM: 24.1%
RKO; 0.0137 µM, ED Fig. 9g, Repetition, replicates
  RKO Cell viability (%): 116.22% and 90.48% and 118.38%
RKO; 0.0137 µM, ED Fig. 9g, first experiment, replicates
  RKO Cell viability (%): 100.34% and 101.05%
RKO; 0.0412 µM, ED Fig. 9g, Repetition, replicates
  RKO Cell viability (%): 83.96% and 99.53%
RKO; 0.0412 µM, ED Fig. 9g, first experiment, replicates
  RKO Cell viability (%): 92.30% and 91.06%
RKO; 0.1235 µM, ED Fig. 9g, Repetition, replicates
  RKO Cell viability (%): 63.64% and 62.87%
RKO; 0.1235 µM, ED Fig. 9g, first experiment, replicates
  RKO Cell viability (%): 80.06% and 70.93%
RKO; 0.3704 µM, ED Fig. 9g, Repetition, replicates
  RKO Cell viability (%): 22.09% and 24.58%
RKO; 0.3704 µM, ED Fig. 9g, first experiment, replicates
  RKO Cell viability (%): 38.23% and 37.54%
RKO; 1.1111 µM, ED Fig. 9g, Repetition, replicates
  RKO Cell viability (%): 19.45% and 19.66%
RKO; 1.1111 µM, ED Fig. 9g, first experiment, replicates
  RKO Cell viability (%): 16.15% and 15.81%
RKO; 3.3333 µM, ED Fig. 9g, Repetition, replicates
  RKO Cell viability (%): 19.33% and 18.47%
RKO; 3.3333 µM, ED Fig. 9g, first experiment, replicates
  RKO Cell viability (%): 14.04% and 13.50%
RKO; 10.0000 µM, ED Fig. 9g, Repetition, replicates
  RKO Cell viability (%): 17.62% and 19.44%
RKO; 10.0000 µM, ED Fig. 9g, first experiment, replicates
  RKO Cell viability (%): 15.71% and 16.52%
RKO; Homo sapiens, 96 h, RKO, 4 d of treatment
  IC50: 207 nM
RKO; Homo sapiens, RKO, 0.0137 µM, ED Fig. 9g, first experiment, replicates, read-out: RKO Cell viability (%)
  viability at 0.0137 µM: 104%
RKO; Homo sapiens, RKO, 0.0412 µM, ED Fig. 9g, Repetition, replicates, read-out: RKO Cell viability (%)
  viability at 0.0412 µM: 103%
RKO; Homo sapiens, RKO, 0.0412 µM, ED Fig. 9g, first experiment, replicates, read-out: RKO Cell viability (%)
  viability at 0.0412 µM: 104%
RKO; Homo sapiens, RKO, 0.1235 µM, ED Fig. 9g, Repetition, replicates, read-out: RKO Cell viability (%)
  viability at 0.1235 µM: 65.6%
RKO; Homo sapiens, RKO, 0.1235 µM, ED Fig. 9g, first experiment, replicates, read-out: RKO Cell viability (%)
  viability at 0.1235 µM: 73.7%
RKO; Homo sapiens, RKO, 0.3704 µM, ED Fig. 9g, Repetition, replicates, read-out: RKO Cell viability (%)
  viability at 0.3704 µM: 25.3%
RKO; Homo sapiens, RKO, 0.3704 µM, ED Fig. 9g, first experiment, replicates, read-out: RKO Cell viability (%)
  viability at 0.3704 µM: 36.7%
RKO; Homo sapiens, RKO, 1.1111 µM, ED Fig. 9g, Repetition, replicates, read-out: RKO Cell viability (%)
  viability at 1.1111 µM: 20%
RKO; Homo sapiens, RKO, 1.1111 µM, ED Fig. 9g, first experiment, replicates, read-out: RKO Cell viability (%)
  viability at 1.1111 µM: 15.3%
RKO; Homo sapiens, RKO, 3.3333 µM, ED Fig. 9g, Repetition, replicates, read-out: RKO Cell viability (%)
  viability at 3.3333 µM: 19.5%
RKO; Homo sapiens, RKO, 3.3333 µM, ED Fig. 9g, first experiment, replicates, read-out: RKO Cell viability (%)
  viability at 3.3333 µM: 14.5%
RKO; Homo sapiens, RKO, 10.0000 µM, ED Fig. 9g, Repetition, replicates, read-out: RKO Cell viability (%)
  viability at 10 µM: 20%
RKO; Homo sapiens, RKO, 10.0000 µM, ED Fig. 9g, first experiment, replicates, read-out: RKO Cell viability (%)
  viability at 10 µM: 16.2%
[1]; 0 min of treatment, individual animals
  Plasma concentration: 0.00 µM
[1]; 45 min of treatment, individual animals
  Plasma concentration: 20.46 µM and 14.73 µM
[1]; 90 min of treatment, individual animals
  Plasma concentration: 17.75 µM and 16.83 µM
[1]; 180 min of treatment, individual animals
  Plasma concentration: 13.04 µM and 13.78 µM
[1]; 480 min of treatment, individual animals
  Plasma concentration: 2.27 µM and 3.36 µM
[1]; 1440 min of treatment, individual animals
  Plasma concentration: 0.20 µM and 0.04 µM (2×)
[1]; mouse, plasma, oral, 20 mg kg^−1, 0 min of treatment, individual animals
  concentration at 0 min: 0 nM
[1]; mouse, plasma, oral, 20 mg kg^−1, 45 min of treatment, individual animals
  concentration at 45 min: 26.8 µM
[1]; mouse, plasma, oral, 20 mg kg^−1, 90 min of treatment, individual animals
  concentration at 90 min: 25.2 µM
[1]; mouse, plasma, oral, 20 mg kg^−1, 180 min of treatment, individual animals
  concentration at 180 min: 17 µM
[1]; mouse, plasma, oral, 20 mg kg^−1, 480 min of treatment, individual animals
  concentration at 480 min: 4.26 µM
[1]; [3]
  AUC: 121 µM·h
  half-life: 2.68 h
[1]; [4]
  C^max: 20.7 µM
  t^max: 45 min
